Publication PMC7932521, “2-aminobenzimidazoles for leishmaniasis: From initial hit discovery to in vivo profiling” (PLoS Neglected Tropical Diseases, 2021)

Legend:
[1] = test system: L. infantum (MHOM/BR/2005/NLC) strain expressing luciferase; assay type: in vivo, Leishmania infantum; details: 25 mg/kg/day oral
Experimental: Groups of female BALB/c mice (n = 5) were infected with 10^8 stationary phase promastigotes of L. infantum chagasi-LUC in a final volume of 100 μL by the intraperitoneal route. At day 14 post-infection, groups were orally treated for 5 days with either drug vehicle only (10% ethanol, 40% PEG400 and 0.4% Tween80 in saline buffer—pH adjusted to 9), miltefosine (40 mg/kg QD) or with compounds 29 and 39 (25 mg/kg QD). Light emission in the ventral abdominal cavity of infected animals was recorded by bioimaging (IVIS Spectrum, Caliper Life Sciences) on 14, 19- and 24-days post-infection. Before imaging, mice received 75 mg/kg VivoGlo™ Luciferin (Promega Corporation) (i.p.) and were anesthetized in a 2% isoflurane atmosphere (Cristália). Animals were then transferred to the imaging chamber and kept in a 2% isoflurane atmosphere. Emitted photons were collected using the high resolution (medium binning) mode. Total photon emission from a defined region of interest (ROI) corresponding to the whole abdominal area was registered. The same ROI was applied to all animals in any given group. Images were acquired 15 min after luciferin injection. Total photon emission from each mouse was quantified with Living Image software version 4.3.1 (Caliper Life Sciences), and results were expressed as the number of photons/s/ROI subtracted from the corresponding ROI in uninfected animals. The detected signal was presented as a pseudocolor image representing light intensity (red = most intense and blue = least intense) and superimposed on the gray scale reference image.

[2] = test system: panel of VL and CL strains (intracellular amastigotes); experiment: Panel of VL and CL strains; assay type: cell-based, Leishmania spp.; details: Leishmania, L. major JISH118 and L. braziliensis H3227 excepted, read-out: IC50 values across panel of VL and CL strains
Experimental: The only two clear exceptions were L. major (MHOM/SA/85/JISH118) and L. braziliensis (MHOM/BR/94/H3227), where a potency drop was evident (see S1 Data for the complete dataset).
(§1) For the antileishmania in vitro assays, 3×10^4 PMM/well were seeded in 96-well plates. After 24h, 5×10^5 amastigotes/well were added and incubated for 2h at 37°C. Next, the compounds in 4-fold serial dilutions were added and the plates were further incubated for 5 days (37°C, 5% CO2). Parasite burdens were assessed using an inverted microscope after Giemsa staining. The results were expressed as percent reduction in parasite burdens compared to negative control wells (100% growth) and IC50 values were determined. Values represent the geometric mean of at least two independent experiments. Miltefosine was used as the positive control in all plates.

Mouse 5-day tolerability = assay type: in vivo; details: healthy mice
Experimental: Compounds were administered to groups (n = 3) of female BALB/c mice via oral gavage in a 5-day exploratory repeat-dose study at doses of 25, 50 and 100 mg/kg/day, employing a solution/suspension vehicle comprising 10% ethanol, 40% PEG400 and 0.4% Tween80 in saline buffer (pH adjusted to 9). Repeat-dose toxicity was evaluated based on mortality, clinical observations, body weight and macroscopic organ pathologies.

[3] = test system: L. braziliensis MHOM/BR/94/H3227; experiment: VL/CL panel, intracellular amastigotes; assay type: cell-based; details: Leishmania braziliensis; average; read-out: IC-50 L. braziliensis MHOM/BR/94/H3227
Experimental: as §1

[4] = Mouse single-dose pharmacokinetics; assay type: in vivo; details: female, BALB/c, plasma, single oral dose 10 mg/kg

## Cn1nc(C(F)(F)F)cc1C(=O)Nc1nc2ccc(C#N)cc2n1CC(F)(F)F [Compound 39, O=C(c1cc(C(F)(F)F)nn1C)Nc2nc(ccc(C#N)c3)c3n2CC(F)(F)F]
[1]
  toxicity in infected mice: severe toxic effects
[2]
  IC50: 0.11 to 5.9 µM
Mouse 5-day tolerability; oral 25 mg/kg/day
  5-day tolerability: well tolerated
Mouse 5-day tolerability; oral 50 mg/kg/day
  5-day tolerability: clinical signs from day 3 of treatment
Mouse 5-day tolerability; oral top dose (100 mg/kg/day)
  5-day tolerability: body weight reduction and severe toxic signs, including mortality

## Cn1nccc1C(=O)Nc1nc2ccc(C#N)cc2n1CC(C)(C)C [Compound 29, O=C(Nc1n(CC(C)(C)C)c(c2n1)cc(C#N)cc2)c3n(C)ncc3]
[1]
  toxicity in infected mice: one animal was euthanized due to severe clinical signs of distress
[1]; 5 days, end of treatment or washout
  parasite load (bioluminescence): no decrease in parasite load
[3]
  IC50: 24.8 µM
[2]
  IC50: 0.11 to 5.9 µM
Mouse 5-day tolerability; oral 25 mg/kg/day
  5-day tolerability: well tolerated
Mouse 5-day tolerability; oral 50 mg/kg/day
  5-day tolerability: clinical signs from day 3 of treatment
Mouse 5-day tolerability; oral top dose (100 mg/kg/day)
  5-day tolerability: body weight reduction and severe toxic signs, including mortality
[4]
  AUC(0-t): 8160 ng·h/mL
  Cmax: 1000 ng/mL
  bioavailability: 72%
  half-life: 7.9 h
